From article PMC6479731 (ACS Synthetic Biology, 2019) come the findings set out here.

The Km is the concentration of substrate that gives half-maximal velocity.

In this assay the test system is Cn Mdh2 CT4–1. The settings on record: read-out: Km,MeOH; 1 mM NAD+, 100 mM glycine-NaOH pH 9.5, 50 mM MgSO4, 37 °C, no activator protein.

`CO` [methanol]: the Km was 88.8 ± 7.8 mM.
